Patent US9108921B2, “Therapeutic compounds and compositions” (AGIOS PHARMACEUTICALS, INC, priority 2014, dated 2015)

Assays:
PKR R510Q = PKR R510Q (Homo sapiens, UniProt P30613, R510Q); assay: PKR Mutant Assay, AC50 against PKR R510Q; format: biochemical; settings: mutant PKR R510Q enzyme
Outline: (§1)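 LDH-coupled read-out: NADH (180 uM) consumption followed as absorbance change at 340 nm, room temperature, after ADP addition. Mutant PKR enzyme 80-400 ng/well, PEP 0.1-0.5 mM, ADP 0.22-1.65 mM; compound preincubated 60 min with all components except ADP.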

PKR R532W = PKR R532W (Homo sapiens, UniProt P30613, R532W); assay: PKR Mutant Assay, AC50 against PKR R532W; format: biochemical; settings: mutant PKR R532W enzyme
Outline: as §1

PKR WT [1] = target: T1, PKR WT (Homo sapiens, UniProt P30613); assay: PKR WT enzymatic AC50 assay; format: biochemical; settings: wild type PKR
Outline: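 PK-LDH coupled assay, RT. Enzyme + cpd + PEP/NADH/LDH, 60 min pre-incubation, no ADP. ADP 0.22-1.65 mM to initiate; A340 kinetic read. Cpd 11 pts, 3-fold, 100 μM top.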

PKR WT [2] = target: T1, PKR WT; assay: PKR WT cell based AC50 assay; settings: wild type PKR

PKR R510Q, sequence (P30613 whole entry R510Q): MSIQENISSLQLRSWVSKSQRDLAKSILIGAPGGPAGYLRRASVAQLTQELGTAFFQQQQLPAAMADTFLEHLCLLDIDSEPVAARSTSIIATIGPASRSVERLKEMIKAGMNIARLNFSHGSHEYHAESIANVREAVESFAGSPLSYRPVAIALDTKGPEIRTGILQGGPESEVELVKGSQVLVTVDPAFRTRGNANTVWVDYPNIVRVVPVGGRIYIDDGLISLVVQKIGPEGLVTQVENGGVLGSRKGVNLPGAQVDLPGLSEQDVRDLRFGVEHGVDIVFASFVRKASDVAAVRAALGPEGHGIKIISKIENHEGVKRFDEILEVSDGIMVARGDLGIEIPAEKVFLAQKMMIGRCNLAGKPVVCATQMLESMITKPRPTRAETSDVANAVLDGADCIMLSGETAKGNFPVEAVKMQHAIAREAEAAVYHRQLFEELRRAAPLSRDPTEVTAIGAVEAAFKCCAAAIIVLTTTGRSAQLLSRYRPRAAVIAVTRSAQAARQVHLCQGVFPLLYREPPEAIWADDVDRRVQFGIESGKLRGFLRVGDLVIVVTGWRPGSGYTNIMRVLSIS
PKR R532W, sequence (P30613 whole entry R532W): as the sequence (P30613 whole entry R510Q) above, with Q510R, R532W counted along it
T1 sequence (P30613 whole entry): as the sequence (P30613 whole entry R510Q) above, with Q510R counted along it

AC50 (PKR R510Q) [nM] | AC50 (PKR R532W) [nM] | AC50 (PKR WT [1]) [nM] | AC50 (PKR WT [2]) [nM] | Structure (SMILES)
< 100 | < 100 | < 100 | < 100 | CC(C)CC1(O)CCN(C(=O)c2ccc(NS(=O)(=O)c3cc(F)cc4sc(N)nc34)cc2)CC1 [Compound 145, 2-amino-6-fluoro-N-(4-(4-hydroxy-4-isobutylpiperidine-1-carbonyl)phenyl)benzo[d]thiazole-4-sulfonamide]
101 to 1000 | < 100 | < 100 | < 100 | O=C(c1ccc(NS(=O)(=O)c2cccc3cccnc23)cc1)N1CCC(O)(Cc2cccc(F)n2)CC1 [Compound 146, N-(4-(4-((6-fluoropyridin-2-yl)methyl)-4-hydroxypiperidine-1-carbonyl)phenyl)quinoline-8-sulfonamide]
101 to 1000 | < 100 | < 100 | < 100 | Cc1ncccc1C1(O)CCN(C(=O)c2ccc(NS(=O)(=O)c3cccc4cccnc34)cc2)CC1 [Compound 147, N-(4-(4-hydroxy-4-(2-methylpyridin-3-yl)piperidine-1-carbonyl)phenyl)quinoline-8-sulfonamide]
101 to 1000 | < 100 | < 100 | 101 to 1000 | O=C(c1ccc(NS(=O)(=O)c2cccc3cccnc23)cc1)N1CCC(O)(c2ncccc2F)CC1 [Compound 148, N-(4-(4-(3-fluoropyridin-2-yl)-4-hydroxypiperidine-1-carbonyl)phenyl)quinoline-8-sulfonamide]
< 100 | < 100 | < 100 | 101 to 1000 | O=C(c1ccc(NS(=O)(=O)c2cccc3cccnc23)cc1)N1CCC(O)(c2ccccc2OC(F)(F)F)CC1 [Compound 150, N-(4-(4-hydroxy-4-(2-(trifluoromethoxy)phenyl)piperidine-1-carbonyl)phenyl)quinoline-8-sulfonamide]
< 100 | < 100 | < 100 | < 100 | O=C(c1ccc(NS(=O)(=O)c2cccc3cccnc23)cc1OC(F)F)N1CCC(O)(c2ccccc2Cl)CC1 [Compound 151, N-(4-(4-(2-chlorophenyl)-4-hydroxypiperidine-1-carbonyl)-3-(difluoromethoxy)phenyl)quinoline-8-sulfonamide]
101 to 1000 | < 100 | < 100 | 101 to 1000 | O=C(c1ccc(NS(=O)(=O)c2cccc3cccnc23)cc1)N1CCC(O)(Cc2cccc(C(F)(F)F)c2)CC1 [Compound 152, N-(4-(4-hydroxy-4-(3-(trifluoromethyl)benzyl)piperidine-1-carbonyl)phenyl)quinoline-8-sulfonamide]
101 to 1000 | < 100 | < 100 | < 100 | Cc1cccnc1C1(O)CCN(C(=O)c2ccc(NS(=O)(=O)c3cccc4cccnc34)cc2)CC1 [Compound 153, N-(4-(4-hydroxy-4-(3-methylpyridin-2-yl)piperidine-1-carbonyl)phenyl)quinoline-8-sulfonamide]
< 100 | < 100 | < 100 | < 100 | Nc1nc2c(S(=O)(=O)Nc3ccc(C(=O)N4CCC(O)(c5ccccc5Cl)CC4)cc3)cc(F)cc2s1 [Compound 154, 2-amino-N-(4-(4-(2-chlorophenyl)-4-hydroxypiperidine-1-carbonyl)phenyl)-6-fluorobenzo[d]thiazole-4-sulfonamide]
101 to 1000 | < 100 | < 100 | < 100 | O=C(c1ccc(NS(=O)(=O)c2cccc3scnc23)cc1)N1CCC(O)(c2ccccc2Cl)CC1 [Compound 155, N-(4-(4-(2-chlorophenyl)-4-hydroxypiperidine-1-carbonyl)phenyl)benzo[d]thiazole-4-sulfonamide]
101 to 1000 | < 100 | < 100 | < 100 | O=C(c1ccc(NS(=O)(=O)c2cccc3cccnc23)cc1)N1CCC(O)(c2ccccc2)CC1 [Compound 156, N-(4-(4-hydroxy-4-phenylpiperidine-1-carbonyl)phenyl)quinoline-8-sulfonamide]
101 to 1000 | < 100 | < 100 | < 100 | O=C(c1ccc(NS(=O)(=O)c2cccc3cccnc23)cc1Cl)N1CCC(O)(c2ccccc2Cl)CC1 [Compound 157, N-(3-chloro-4-(4-(2-chlorophenyl)-4-hydroxypiperidine-1-carbonyl)phenyl)quinoline-8-sulfonamide]
101 to 1000 | < 100 | < 100 | < 100 | O=C(c1ccc(NS(=O)(=O)c2cccc3cccnc23)cc1)N1CCC(O)(c2cccnc2C(F)(F)F)CC1 [Compound 159, N-(4-(4-hydroxy-4-(2-(trifluoromethyl)pyridin-3-yl)piperidine-1-carbonyl)phenyl)quinoline-8-sulfonamide]
< 100 | < 100 | < 100 | < 100 | CC(C)CC1(O)CCN(C(=O)c2ccc(NS(=O)(=O)c3cccc4nccnc34)cc2)CC1 [Compound 160, N-(4-(4-hydroxy-4-isobutylpiperidine-1-carbonyl)phenyl)quinoxaline-5-sulfonamide]
101 to 1000 | < 100 | < 100 | < 100 | O=C(c1ccc(NS(=O)(=O)c2cccc3cccnc23)cc1)N1CCC(O)(c2ccncc2Cl)CC1 [Compound 161, N-(4-(4-(3-chloropyridin-4-yl)-4-hydroxypiperidine-1-carbonyl)phenyl)quinoline-8-sulfonamide]
101 to 1000 | < 100 | < 100 | < 100 | O=C(c1ccc(NS(=O)(=O)c2cccc3nccnc23)cc1)N1CCC(O)(c2ccccc2Cl)CC1 [Compound 162, N-(4-(4-(2-chlorophenyl)-4-hydroxypiperidine-1-carbonyl)phenyl)quinoxaline-5-sulfonamide]
101 to 1000 | < 100 | < 100 | < 100 | O=C(c1ccc(NS(=O)(=O)c2cccc3cccnc23)c(F)c1)N1CCC(O)(Cc2ccccc2)CC1 [Compound 163, N-(4-(4-benzyl-4-hydroxypiperidine-1-carbonyl)-2-fluorophenyl)quinoline-8-sulfonamide]
101 to 1000 | < 100 | < 100 | < 100 | O=C(c1ccc(NS(=O)(=O)c2cccc3cccnc23)cc1)N1CCC(O)(c2ncccc2C(F)(F)F)CC1 [Compound 164, N-(4-(4-hydroxy-4-(3-(trifluoromethyl)pyridin-2-yl)piperidine-1-carbonyl)phenyl)quinoline-8-sulfonamide]
101 to 1000 | < 100 | < 100 | < 100 | O=C(c1ccc(NS(=O)(=O)c2cccc3cccnc23)cc1)N1CCC(O)(c2ccccc2F)CC1 [Compound 165, N-(4-(4-(2-fluorophenyl)-4-hydroxypiperidine-1-carbonyl)phenyl)quinoline-8-sulfonamide]
101 to 1000 | < 100 | < 100 | < 100 | O=C(c1ccc(NS(=O)(=O)c2cccc3cccnc23)cc1)N1CCC(O)(c2cc(F)ccc2Cl)CC1 [Compound 166]
< 100 | < 100 | < 100 | < 100 | CCCCC1(O)CCN(C(=O)c2ccc(NS(=O)(=O)c3cccc4cccnc34)cc2)CC1 [Compound 167, N-(4-(4-butyl-4-hydroxypiperidine-1-carbonyl)phenyl)quinoline-8-sulfonamide]
101 to 1000 | < 100 | < 100 | < 100 | O=C(c1ccc(NS(=O)(=O)c2cccc3cccnc23)cc1)N1CCC(O)(Cc2cccnc2F)CC1 [Compound 168, N-(4-(4-((2-fluoropyridin-3-yl)methyl)-4-hydroxypiperidine-1-carbonyl)phenyl)quinoline-8-sulfonamide]
101 to 1000 | < 100 | < 100 | < 100 | O=C(c1ccc(NS(=O)(=O)c2cccc3cccnc23)cc1)N1CCC(O)(Cc2cccc(F)c2F)CC1 [Compound 169, N-(4-(4-(2,3-difluorobenzyl)-4-hydroxypiperidine-1-carbonyl)phenyl)quinoline-8-sulfonamide]
101 to 1000 | < 100 | < 100 | 101 to 1000 | COc1cc(NS(=O)(=O)c2cccc3cccnc23)ccc1C(=O)N1CCC(O)(c2ccccc2Cl)CC1 [Compound 170, N-(4-(4-(2-chlorophenyl)-4-hydroxypiperidine-1-carbonyl)-3-methoxyphenyl)quinoline-8-sulfonamide]
101 to 1000 | < 100 | < 100 | 101 to 1000 | Cc1nc(C2(O)CCN(C(=O)c3ccc(NS(=O)(=O)c4cccc5cccnc45)cc3)CC2)ccc1F [Compound 171, N-(4-(4-(5-fluoro-6-methylpyridin-2-yl)-4-hydroxypiperidine-1-carbonyl)phenyl)quinoline-8-sulfonamide]
< 100 | < 100 | < 100 | < 100 | CC(C)CC1(CO)CCN(C(=O)c2ccc(NS(=O)(=O)c3cccc4cccnc34)cc2)CC1 [Compound 172, N-(4-(4-(hydroxymethyl)-4-isobutylpiperidine-1-carbonyl)phenyl)quinoline-8-sulfonamide]
< 100 | < 100 | < 100 | < 100 | CC(C)CC1(O)CCN(C(=O)c2ccc(NS(=O)(=O)c3cccc4scnc34)cc2)CC1 [Compound 173, N-(4-(4-hydroxy-4-isobutylpiperidine-1-carbonyl)phenyl)benzo[d]thiazole-4-sulfonamide]
